# Test results reported in publication PMC9826262, “Discovery of Benzo[d]imidazole‐6‐sulfonamides as Bromodomain and Extra‐Terminal Domain (BET) Inhibitors with Selectivity for the First Bromodomain” (Chemmedchem, 2022).
# Where two headings read alike, the source gives them in different places.
# Columns and labels:
# [1] = test system: BD1 and BD2 of BRD2 and BRD3; conditions: cited from earlier work
# [2] = Nephelometric solubility determination; assay type: physicochemical; conditions: for solubility: aqueous buffer, kinetic from dmso stock, PBS with 1 % DMSO, tested at 50 and 100 μM, room temperature, read-out: Solubility (highest concentration where no precipitate was detected)
# Description: Solubility determination. Solubility of the compounds was determined using Nepheloskan Ascent® (Labsystems). The experiments were performed at room temperature in 96‐well plates in a final volume of 300 μL. Each compound was tested in quadruplicate at the concentrations of 50 and 100 μM in PBS with 1 % DMSO. The measurements were performed at 4 different time points (T0, 30 min, 60 min, 90 min) from the preparation of the samples. Data obtained were compared to control (PBS with 1 % DMSO) and the ratio sample/control was determined for each compound. Compounds are considered soluble if the ratio is≤3.
# [3] = target: BRD4 BD2; conditions: cited from earlier work
# [4] = in vitro; conditions: PAMPA, pH 7.4
# Description: Membrane permeability was estimated by the well‐validated parallel artificial membrane permeability assay (PAMPA) technique.[17, 26]
# Parallel Artificial Membrane Permeability Assay (PAMPA). Donor solution (0.2 mM) was prepared by diluting 20 mM dimethyl sulfoxide (DMSO) compound stock solution using phosphate buffer (pH 7.4, 0.01 M). Filters were coated with 5 μL of a 1 % (w/v) dodecane solution of L‐α‐phosphatidylcholine. Donor solution (150 μL) was added to each well of the filter plate. To each well of the acceptor plate, 300 μL of solution (5 % DMSO in phosphate buffer) was added. […] The sandwich was incubated for 24 h at room temperature under gentle shaking. After the incubation time, the sandwich plates were separated and 250 μL of the acceptor plate was transferred to a UV quartz microtiter plate and measured by UV spectroscopy, using a Multiskan GO microplate spectrophotometer (Thermo Fisher Scientific) at 250–500 nm at a step of 5 nm. Reference solutions (250 μL) were prepared diluting the sample stock solutions to the same concentration as that with no membrane barrier.
# In this equation, VR is the volume of the acceptor compartment (0.3 cm^3), VD is the donor volume (0.15 cm^3), A is the accessible filter area (0.24 cm^2), and t is the incubation time in seconds.
# [5] = CYPs and UGTs dual-activity microsomal stability; assay type: in vitro ADME; conditions: human liver microsomes; alamethicin, NADPH and UDPGA cofactors; 37 °C, 60 min
# Description: In this study, the CYPs and UGTs “dual‐activity” microsomal stability assay was carried out to follow the loss of the test compounds over time under CYP‐ and UGT‐mediated metabolic pathways. In detail, the compounds were added to human liver microsomes in the presence of alamethicin, NADPH and UDPGA as cofactors.[24] Alamethicin, a pore‐forming peptide, was used to activate UGTs in human liver microsomes. Testosterone was used as positive control while the negative control was prepared by incubation of the compounds without cofactors up to 60 min. The negative control is essential to detect problems such as non‐specific protein binding or heat instability.
# Instrumentation and chromatographic conditions. The metabolic stability of investigated compounds was monitored using a Nexera UHPLC system (Shimadzu, Kyoto, Japan) consisting of a CBM‐20A controller, two LC‐30AD pumps, an SPD‐M20A photo diode array detector, a CTO‐20AC column oven and, a SIL‐30AC autosampler. The chromatographic analyses were accomplished on a Kinetex® Evo C18 column, 150×2.1 mm×2.6 μm (Phenomenex®, Bologna, Italy) maintained at 40 °C. The optimal mobile phase consisted of 0.1 % HCOOH/H2O v/v (A) and 0.1 % HCOOH/ACN v/v (B) delivered at constant flow rate of 0.5 mL/min ^−1. Analysis was performed in gradient elution as follows: 0–8.00 min, 5–95 % B; 8.00–10.00 min, isocratic to 95 % B; then five minutes for column re‐equilibration. Data acquisition was set in the range 190–800 nm and chromatograms were monitored at 254 nm.
# In vitro drug metabolism using human liver microsomes. 25 μL of 5 mg/mL human […] microsomes (Thermo Fisher Scientific, Bremen, Germany) were pre‐incubated with 0.625 μL of 100 μg/mL alamethicin. Then 2.5 μL of sample (5 mM) with 168 μL of 100 mM phosphate buffer (pH 7.4), 4 μL of 500 mM MgCl2 were added, the mixture was incubated at 37 °C for 5 min. Optimal UGT activity can be achieved by the addition of MgCl2 and alamethicin as pore forming antibiotic. These components allow for the efficient transfer of a glucuronide product and the cofactor uridine 5′‐diphospho‐α‐D‐glucuronic acid (UDPGA) within the microsomal matrix. The reaction has started by adding 50 μL of mix NADPH 20 mM and UDP‐GlcUA 20 mM as cofactors (1 : 1 v/v) and carried out 37 °C for 60 min in a Thermomixer comfort (Eppendorf, Hamburg, Germany). The reaction was stopped by the addition of 200 μL ice‐cold acetonitrile and then samples were centrifuged at 14,000 rpm at 25 °C for 5 min (Eppendorf® microcentrifuge 5424, Hamburg, Germany). The supernatants were collected and injected in UHPLC. The control at 0 min was obtained by addition of ice‐cold acetonitrile immediately after incubation with microsomes. […]
# [6] = target: T1, BRD4 BD1 (Homo sapiens, UniProt O60885); conditions: cited from earlier work
# T1 construct: The microsyringe was loaded with a solution of BRD4 BD1; His6 (cleaved yes); made in house; host or cells: E. coli BL21(DE3)-R3-pRARE2
# [7] = test system: BD1 and BD2 of BET proteins (BRD2, BRD3, BRD4 and BRDT); assay: Protein stability shift assay (ΔTm), BET bromodomains; assay type: binding; conditions: compound 10 μM; protein 2 μM
# Description: The compounds were tested at 10 μM fixed dose and the pan‐BET inhibitor 1 was used as a reference compound.[22] The results obtained from this screening supported our design strategy.
# Protein stability shift assay. Thermal melting experiments were carried out using an Mx3005p Real Time PCR machine (Stratagene). Proteins were buffered in 10 mM HEPES pH 7.5, 500 mM NaCl and assayed in a 96‐well plate at a final concentration of 2 μM in 20 μL volume. Compounds were added at a final concentration of 10 μM. SYPRO Orange (Molecular Probes) was added as a fluorescence probe at a dilution of 1 : 1000. Excitation and emission filters for the SYPRO‐Orange dye were set to 465 nm and 590 nm, respectively. The temperature was raised with a step of 3 °C per minute from 25 °C to 96 °C and fluorescence readings were taken at each interval. The temperature dependence of the fluorescence during the protein denaturation process was approximated by the equation yT=yF+yU-yF/1+e^ΔuGT/RT
# where ΔuG(T) is the difference in unfolding free energy between the folded and unfolded state, R is the gas constant and yF and yU are the fluorescence intensity of the probe in the presence of completely folded and unfolded protein, respectively. The baselines of the denatured and native states were approximated by a linear fit. The observed temperature shifts, ΔTm obs, were recorded as the difference between the transition midpoints of sample and reference wells containing protein without ligand in the same plate and determined by non‐linear least squares fit.
# [8] = test system: HeLa cells; assay: MTT cell viability assay; assay type: cell-based, human; conditions: 50 μM, 72 h
# Description: Cells were incubated with different compound concentrations (50 μM, 5 μM and 0.5 μM) for different times (24, 48 and 72 h) and cellular viability was determined performing an MTT (3‐(4,5‐dimethylthiazol‐2‐yl)‐2,5‐diphenyl‐2H‐tetrazolium bromide) assay.
# Cell Viability Assay. HeLa cell line was cultured in DMEM supplemented with 10 % (v/v) fetal bovine serum, 100 U/mL penicillin, 100 μg/mL streptomycin, and 2 mM L‐glutamine at 37 °C in a 5 % CO2 atmosphere. Cell viability was determined using a 3‐(4,5‐dimethylthiazol‐2‐yl)‐2,5‐diphenyltetrazolium bromide (MTT) assay. […] The mitochondrial dependent reduction of MTT to formazan was used to assess cell viability. Live cells reduce yellow MTT to purple formazan. The formazan was solubilized in DMSO, and absorbance was measured at 550 nm and corrected for 620 nm background. Experiments were performed in quadruplicate and all values are expressed as the percentage of the control containing 1 % DMSO.
# [9] = target: T2, BRD3(BD2) (Homo sapiens, UniProt Q15059); assay: TR-FRET displacement binding assay; conditions: AlexaFluor647 derivative of 1
# T2 construct: tested on BD1 and BD2 domains (6×His‐tagged) of each BET protein
# T2 sequence (Q15059 306-415 limits assumed): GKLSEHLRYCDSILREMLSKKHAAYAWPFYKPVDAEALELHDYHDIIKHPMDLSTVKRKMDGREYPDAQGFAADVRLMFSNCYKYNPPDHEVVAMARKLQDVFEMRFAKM
# Description: (§1) TR‐FRET assay. […] Compound was diluted in assay buffer (150 mM HEPES, 150 mM NaCl, 5 % glycerol, 1 mM DTT, and 1 mM CHAPS, pH 7.4), starting from a stock solution of 10 mM (100 % DMSO). The highest concentration tested was 100 μM and from this concentration 11 three‐fold dilutions were prepared. […] TR‐FRET ratio was calculated using the following equation: ratio=acceptorfluorescenceat665nm/donorfluorescenceat615nm×1000
# (§2) Compound was tested in triplicate and data were analyzed using GraphPad Prism software (version 8.0) using the equation log(inhibitor) vs. normalized response‐variable slope.
# [10] = target: T3, BRD3(BD1) (Homo sapiens, UniProt Q15059); assay: TR-FRET displacement binding assay; conditions: AlexaFluor647 derivative of 1
# T3 construct: tested on BD1 and BD2 domains (6×His‐tagged) of each BET protein
# T3 sequence (Q15059 34-140 limits assumed): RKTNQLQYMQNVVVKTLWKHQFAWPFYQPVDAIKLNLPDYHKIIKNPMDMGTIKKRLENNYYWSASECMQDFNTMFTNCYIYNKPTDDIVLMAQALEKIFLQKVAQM
# Description: as §1, §2
# [11] = target: T4, BRD2(BD2) (Homo sapiens, UniProt P25440); assay: TR-FRET displacement binding assay; conditions: AlexaFluor647 derivative of 1
# T4 construct: tested on BD1 and BD2 domains (6×His‐tagged) of each BET protein
# T4 sequence (P25440 344-453 limits assumed): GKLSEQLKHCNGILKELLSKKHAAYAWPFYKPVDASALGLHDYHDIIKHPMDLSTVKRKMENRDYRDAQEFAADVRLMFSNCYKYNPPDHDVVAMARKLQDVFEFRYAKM
# Description: as §1, §2
# [12] = target: T5, BRD2(BD1) (Homo sapiens, UniProt P25440); assay: TR-FRET displacement binding assay; conditions: AlexaFluor647 derivative of 1
# T5 construct: tested on BD1 and BD2 domains (6×His‐tagged) of each BET protein
# T5 sequence (P25440 74-180 limits assumed): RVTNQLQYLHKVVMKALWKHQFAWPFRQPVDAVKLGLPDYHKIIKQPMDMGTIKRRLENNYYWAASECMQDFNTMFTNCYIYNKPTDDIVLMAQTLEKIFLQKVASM
# Description: as §1, §2
# [13] = set-up: method as in PMID 32193360; conditions: cited from earlier work
# [14] = test system: BD1 in all BET proteins; conditions: cited from earlier work
# [15] = test system: THP‐1 cell line; conditions: read-out: IC50 cell growth THP‐1; cited from earlier work
# [16] = test system: MV4‐11 cell line; conditions: read-out: IC50 cell growth MV4‐11; cited from earlier work
# [17] = test system: HL60 cell line; conditions: read-out: IC50 cell growth HL60; cited from earlier work
# [18] = target: BD1 of BET proteins; conditions: cited from earlier work
smiles,measurement,setting,value
"Cc1cc(/N=N/c2ccc(S(=O)(=O)Nc3ccc(C#N)cc3)cc2)cc(C)c1O [7 b, MS611]",Selectivity between BD1 and BD2 of BRD2 and BRD3 (words),[1],almost no selectivity between each BDs domain of BRD3 and BRD2
same,Selectivity between BD1 and BD2 of BRD2 and BRD3 (words),[1]; listed as MS611,almost no difference in binding affinity between BD1 and BD2 of BRD2 and BRD3
same,solubility,[2],50 µM
same,Ki,[3],41.3 µM
same,"Papp at 24 h, 0.2 mM",[4],1.1 ×10⁻⁶ cm/s
same,CYPs and UGTs “dual‐activity” microsomal stability (percentage of the parent compound turnover),[5],7.5±1.0%
same,Ki,[6],0.41 µM
"Cc1cc(-c2nc3ccc(S(=O)(=O)Nc4ccccn4)cc3[nH]2)cc(C)c1O [9 a, 2‐(4‐hydroxy‐3,5‐dimethylphenyl)‐N‐(pyridin‐2‐yl)‐1H‐benzo[d]imidazole‐6‐sulfonamide]",ΔTm screening against BET bromodomains,[7],increase in the melting temperature of all BET proteins
same,Decrease of cell viability,[8],around 30%
same,IC50,[9],7 ± 3 µM
same,IC50,[10],0.18 ± 0.02 µM
same,Solubility at 100 μM,"[2]; 100 μM, aqueous solution with 1 % DMSO",still soluble
same,solubility,[2],100 µM
same,IC50,[11],22 ± 8 µM
same,IC50,[12],0.126 ± 0.019 µM
same,"Papp at 24 h, 0.2 mM",[4],0.107 ×10⁻⁶ cm/s
same,CYPs and UGTs “dual‐activity” microsomal stability (percentage of the parent compound turnover),[5],1.0±0.3%
"COCc1nc2cnc3cc(-c4c(C)noc4C)c(OC[C@H]4CCNC4)cc3c2n1[C@H](C)c1ccccc1 [Compound 5, GSK778]",Pharmacokinetic properties,[13],poor pharmacokinetic properties
"Cc1cc2c(-c3ccco3)cnc(N[C@@H]3CCN(C)C[C@H]3C(=O)NC3CCCCC3)c2[nH]c1=O [Compound 6, GSK789]",IC50,[14],0.03 µM
same,Selectivity for BD1 over BD2 in all BET proteins,[14],1000 fold
same,IC50,[15],0.258 µM
same,IC50,[16],0.025 µM
same,IC50,[17],0.39 µM
CC(=O)NCCCCn1c2c(c3ccccc31)C(=O)NCC2 [Olinone],Kd,[18],3.4 µM
